Reference: patent publication US12037354B2, “Cyclic pantetheine derivatives and uses thereof” (VectivBio Comet AG, priority 2018, dated 2024)

Experiments:
Assay type in all cases: cell-based, human
[1] = tested on: Monocytes differentiated to M1 macrophages; experiment: M1 differentiation assay (TNFα, IL6, IL10 ELISA, FACS), Example 807
Experimental: Monocytes were isolated by positive isolation with CD14+ microbeads (Miltenyi, 130-050-201). Monocytes were 99% viable and were 96% purity as analyzed by FACS and CD14+(BD, 563561). 100,000 monocytes along with compounds at the dose of 10 and 50 μM were allowed to differentiate to macrophages with 10 ng/ml GMCSF (R&D, 15-GM-050/CF) in RPMI complete media (Invitrogen, 22400089) with 15% FBS (Hyclone SV30087.03) and 1% Penicillin-Streptomycin (Gibco, 15140-122). On day 2 and 4 half the media was refreshed with fresh GM-CSF and compounds at 10 and 50 μM dose. On day 6 the macrophages were matured with GMCSF, IFNγ (R&D 285-IF-100/CF) and LPS (Sigma, L6143) in the presence of 10 μM and 50 μM of compounds. After 24 h, supernatant was collected for the measurement of TNFα (DKW, 1117202) IL6 (DKW, 1110602), IL10 (DKW, 1110003) by ELISA. Macrophages were detached gently on ice with EDTA (Invitrogen, 15575-038) and analyzed by FACS (BD LSR Fortessa, 853492). Cells were stained for live/dead dye, surface and intracellular markers with fixation/permeabilization solution (BD, 554714) and ALIVE/DEAD™ Fixable Near-IR Dead Cell Stain Kit (BD, L34976), mouse anti human CD86 APC (BD, 555660), mouse anti-human CD163 PE (BD, 556018), mouse anti-human CD68 FITC (BD, 562117) or isotype controls anti-mouse IgG1 κ PE (BD, 559320) and anti-mouse IgG1 κ APC (BD, Anti mouse IgG1 κ APC (BD, 55571). Mature M1 macrophages were defined as CD86+CD68+CD163− and increase in TNFα, IL6, and decrease in IL-10.

[2] = tested on: Venular endothelial cells co-cultured with macrophages (Mphg system); experiment: BioMAP Mphg system, Example 836
Experimental: (§1) The BioMAP platform (BioMAP® Diversity PLUS Panel from Eurofins) is an in vitro phenotypic profiling technology that screened the compounds of the present disclosure (hereafter indicated as test agents) in human primary cell-based systems modelling complex tissue and disease states. The BioMAP assays were performed using the Eurofin's BioMAP Technology Platform as (see references 1 to 13 in the example 824 section) to model different diseases on primary cell-based model systems. These systems consisted of either single primary cell types or co-culture cells. Adherent cell types were cultured or co-cultured in 96 or 384-well plates until confluence followed by the addition of compounds prepared in DMSO at a final concentration of ≤0.1%. In each cell-based system, primary cells from heathy donors (2-6 donors) were pooled and treated with compounds at 1 and 10 μM dose 1 h prior to stimulation and remain in culture as indicated in
(§2) Example 825, Example 826, Example 827, Example 828, Example 829, Example 830, Example 831, Example 832, Example 833, Example 834, Example 835, Example 836 and Example 837. For on the BioMAP® Diversity PLUS® Panel, please see the following references, which are incorporate herein.
Following the general procedure as described in Example 824, Venular endothelial cells co-cultured with macrophages (Mphg system) and treated with TLR2 ligand for 24 h in the presence or absence of the compounds to mimic cardiovascular inflammation, restenosis and chronic inflammation. Biomarkers read out were; MCP-1, MIP-1α, VCAM-1, CD40, E-selectin, CD69, IL-8, IL-1α, M-CSF, sIL-10 and SRB.

[3] = tested on: Keratinocytes co-cultured with dermal fibroblast (KF3CT system); experiment: BioMAP KF3CT system, Example 834
Experimental: as §1, §2
Following the general procedure as described in Example 824, Keratinocytes were co-cultured with dermal fibroblast (KF3CT system) and treated with […], TNFα, IFNγ and TGFβ for 24 h in the presence or absence of the compounds to model psoriasis, dermatitis and skin biology. Biomarkers read out were; MCP-1, ICAM-1, IP-10, IL-8, MIG, IL-1α, MMP-9, PAI-1, SRB, TIMP-2, uPA.

[4] = tested on: Bronchial epithelial cells co-cultured with dermal fibroblast (BF4T system); experiment: BioMAP BF4T system, Example 830; settings: 10 uM
Experimental: as §1, §2
Following the general procedure as described in Example 824, Bronchial epithelial cells were co-cultured with dermal fibroblast (BF4T system) and were treated with TNFα and IL-4 for 24 h in the presence or absence of the compounds to model asthma, allergy, fibrosis, lung inflammation. Biomarkers read out were; MCP-1, Eotaxin-3, VCAM-1, ICAM-1, CD90, IL-8, IL-1α, keratin 8/18, MMP-1, MMP-3, MMP-9, PAI-1, SRB, tPA, uPA.

[5] = tested on: Venular Endothelial cells (HUVEC) (4H system); experiment: BioMAP 4H system, Example 826
Experimental: as §1, §2
Following the general procedure as described in Example 824, Venular Endothelial cells (HUVEC) (4H system) were treated with IL-4 and histamine for 24 h to model Th2 driven allergy and autoimmunity in the presence or absence of compounds. Biomarkers read out were; MCP-1, Eotaxin-3. VCAM-1, P-selectin, uPAR (CD87), SRB and VEGFRII.

[6] = tested on: Dermal fibroblasts (HDF3CGF system); experiment: BioMAP HDF3CGF system, Example 833; settings: 1 uM
Experimental: as §1, §2
Following the general procedure as described in Example 824, Dermal fibroblasts (HDF3CGF system) were treated with IL-1β, TNFα and IFNγ, EGF, bFGF and PDGF-BB for 24 h in the presence or absence of the compounds to model fibrosis and chronic inflammation. Biomarkers read out were; MCP-1, VCAM-1, ICAM-1, Collagen-I, Collagen-III, IP-10, I-TAC, IL-8, MIG, EGFR, M-CSF, MMP-1, PAI-1, SRB, TIMP-1, TIMP-2 and proliferation was measured for 72 h.

[7] = tested on: Peripheral blood mononuclear cells co-cultured with venular endothelial cells (Sag system); experiment: BioMAP Sag system, Example 828; settings: Sag system, 1 uM
Experimental: as §1, §2
Following the general procedure as described in Example 824, Peripheral blood mononuclear cells were co-cultured with venular endothelial cells and treated with soluble antigen (T-cell ligands) (Sag system) in the presence or absence of compounds to model autoimmune and chronic inflammation. Biomarkers read out were; MCP-1, CD38, CD40, E-selectin, CD69, IL-8, MIG, PBMC cytotoxicity, Proliferation and SRB.

[8] = tested on: Venular Endothelial cells (HUVEC) (3C system); experiment: BioMAP 3C system, Example 825
Experimental: as §1, with “In each cell-based system, primary cells from heathy donors (2-6 donors) were pooled and treated with compounds at 1 and 10 μM dose 1 h prior to stimulation and remain in culture as indicated in” left out
Following the general procedure as described in Example 824, Venular Endothelial cells (HUVEC) (3C system) were treated with IL-1β, TNFα, IFNγ for 24 h to model Th1 driven cardiovascular and chronic inflammation diseases in the presence or absence of the compounds. Biomarker read out were; Tissue Factor, ICAM-1, E-selectin, uPAR (CD87), IL-8, […], HLA-DR, proliferation and SRB (Sulfo-rhodamine i.e. staining for protein content).

[9] = tested on: Coronary artery smooth muscle cells (CASM3C system); experiment: BioMAP CASM3C system, Example 832
Experimental: as §1, §2
Following the general procedure as described in Example 824, Coronary artery smooth muscle cells (CASM3C system) were treated with IL-1β, TNFα and IFNγ for 24 h in the presence or absence of the compounds to model cardiovascular inflammation and restenosis. Biomarker reads out were; MCP-1, VCAM-1, Throbomodulin, Tissue factor, uPAR, IL-8, MIG, HLA-DR, IL-6, LDLR, M-CSF, PAI-1, Proliferation, SAA and SRB

[10] = tested on: Peripheral blood mononuclear cells co-cultured with B-cells (BT system); experiment: BioMAP BT system, Example 829; settings: BT system; 10 uM
Experimental: as §1, §2
Following the general procedure as described in Example 824, Peripheral blood mononuclear cells were co-cultured with B-cells (BT system) were treated with either α-IgM and TCR ligands for 72 h in the presence or absence of the compounds to model asthma, allergy, oncology and autoimmunity. Biomarkers read out were; B-cell proliferation, PBMC cytotoxicity, secreted IgG, sIL-17A, sIL-17F, sIL-2, sIL-6 and s-TNFα.

[11] = tested on: Peripheral blood mononuclear cells co-cultured with venular endothelial cells (HUVEC) (LPS system); experiment: BioMAP LPS system, Example 827
Experimental: as §1, §2
Following the general procedure as described in Example 824, Peripheral blood mononuclear cells co-cultured with venular endothelial cells (HUVEC) (LPS system) were stimulated with LPS for 24 h in the presence or absence of compounds, to model cardiovascular disease and chronic inflammation. Biomarkers read out were; MCP-1, VCAM-1, Thrombomodulin, Tissue Factor, CD40, E-selectin, CD69, IL-8, IL-1α, M-CSF, sPGE2, SRB and TNFα.

SMILES: CC1(C)OC(=O)C(CC(=O)SCCNC(=O)CCNC(=O)[C@@H]2OC(C)(C)OCC2(C)C)O1 (some centres unmarked) [Compound 851]
- % Increase in IL-10 Secretion ([1]; 10 uM): ≥30%
- % decrease in Macrophage IL-6 Secretion ([1]; 10 uM): ≥30%
- % decrease in Macrophage TNFα Secretion ([1]; 10 uM): ≥30%

SMILES: COC(=O)CCC(=O)CC(=O)SCCNC(=O)CCNC(=O)[C@@H]1OP(=O)(O)OCC1(C)C [Compound 6]
- % decrease in α-SMA ([2]; procedure of Example 836, 1 uM): ≥10%
- % increase in MMP-1 ([2]; procedure of Example 836, 10 uM): ≥10%
- % decrease in MCP-1 ([3]; 10 uM (Example 927)): ≥10%
- % decrease in MCP-1 ([3]; 10 uM (Example 928)): ≥10%
- % increase in VCAM-1 [4]: ≥10%
- % decrease in MCP-1 ([5]; 4H system, 1 uM): ≥10%
- % decrease in VEGFRII ([5]; 4H system, 1 uM): ≥10%
- % decrease in MCP-1 ([5]; concentration tested 1 uM): ≥10%
- % decrease in VEGFRII ([5]; concentration tested 1 uM): ≥10%
- % decrease in TIMP-1 [6]: ≥10%
- % increase in 72 Hour Proliferation [6]: ≥10%
- % increase in MCP-1 [7]: ≥10%
- % decrease in IL-8 ([8]; 3C system, 1 uM): ≥10%
- % increase in Proliferation (HUVEC) ([8]; 3C system, 10 uM): ≥20%
- % increase in Proliferation (HUVEC) ([8]; concentration tested 10 uM): ≥20%
- % decrease in IL-8 ([8]; procedure of Example 825, concentration tested 1 uM): ≥10%
- % decrease in HLA-DR ([9]; 1 uM): ≥10%
- % decrease in M-CSF ([9]; 1 uM): ≥10%
- % decrease in VCAM-1 ([9]; 1 uM): ≥10%
- % decrease in Thrombomodulin ([9]; 10 uM): ≥20%
- % decrease in sTNFα [10]: ≥10%
- % decrease in M-CSF ([11]; Example 988, concentration tested 1 uM): ≥10%
- % decrease in IL-8 ([11]; LPS system, 1 uM): ≥10%
- % decrease in M-CSF ([11]; LPS system, 1 uM): ≥10%
- % decrease in Tissue Factor ([11]; LPS system, 1 uM): ≥10%
- % decrease in sTNFα ([11]; LPS system, 1 uM): ≥20%
- % decrease in Tissue Factor ([11]; concentration tested 1 uM): ≥10%
- % decrease in sTNFα ([11]; concentration tested 1 uM): ≥20%
- % decrease in IL-8 ([11]; procedure of Example 827, concentration tested 1 uM): ≥10%

SMILES: CCOC(=O)CCC(=O)SCCNC(=O)CCNC(=O)[C@@H]1OP(=O)(N[C@@H](C)C(=O)OCC)OCC1(C)C (some centres unmarked) [Compound 206]
- % increase in sIL-6 [10]: ≥20%

SMILES: CC(C)=CC(=O)SCCNC(=O)CCNC(=O)[C@@H]1OC(C)(C)OCC1(C)C [Compound 850, S-2-(3-{[(R)-2,2,5,5-Tetramethyl-1,3-dioxan-4-yl]carbonylamino}propionylamino)ethyl 3-methyl-2-butenethioate]
- % decrease in Macrophage IL-6 Secretion ([1]; 10 uM): ≥30%
- % decrease in Macrophage TNFα Secretion ([1]; 50 uM): ≥30%
